Test results as given in ChEMBL document CHEMBL5465560, “Selectivity Literature for EUbOPEN Chemogenomic Library” (2024).
Values belong to the molecule of their own block, whether it stands above or below them.

Columns and labels:
[1] = target: T1, Receptor-interacting serine/threonine-protein kinase 4 (Homo sapiens) (UniProt P57078); test: Selectivity interaction (KinomeScan (DiscoverX)) EUB0000045b RIPK4
T1 sequence (whole entry): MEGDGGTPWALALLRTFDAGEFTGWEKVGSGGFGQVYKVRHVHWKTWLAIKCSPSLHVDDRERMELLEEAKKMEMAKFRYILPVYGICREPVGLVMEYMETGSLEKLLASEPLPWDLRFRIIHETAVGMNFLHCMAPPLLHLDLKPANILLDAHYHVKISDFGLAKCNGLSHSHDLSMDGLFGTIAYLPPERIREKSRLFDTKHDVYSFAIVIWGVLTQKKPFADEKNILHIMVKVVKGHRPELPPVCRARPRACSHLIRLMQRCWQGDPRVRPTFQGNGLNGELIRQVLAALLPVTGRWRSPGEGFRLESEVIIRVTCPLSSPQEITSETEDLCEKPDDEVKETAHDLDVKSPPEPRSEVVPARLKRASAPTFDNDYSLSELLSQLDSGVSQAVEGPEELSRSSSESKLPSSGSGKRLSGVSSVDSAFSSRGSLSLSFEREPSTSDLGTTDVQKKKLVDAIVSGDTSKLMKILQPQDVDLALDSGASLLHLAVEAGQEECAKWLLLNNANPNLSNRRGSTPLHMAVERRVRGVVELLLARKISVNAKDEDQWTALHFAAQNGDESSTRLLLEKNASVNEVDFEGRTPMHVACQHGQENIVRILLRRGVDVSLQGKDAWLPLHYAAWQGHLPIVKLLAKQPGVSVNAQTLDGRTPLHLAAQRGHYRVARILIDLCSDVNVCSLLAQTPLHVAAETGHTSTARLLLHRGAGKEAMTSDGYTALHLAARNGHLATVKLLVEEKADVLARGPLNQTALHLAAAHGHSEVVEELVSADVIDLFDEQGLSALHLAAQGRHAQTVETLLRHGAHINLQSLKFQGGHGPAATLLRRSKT

[2] = target: T2, Dual specificity mitogen-activated protein kinase kinase 3 (Homo sapiens) (UniProt P46734); test: Selectivity interaction (ActivX KiNativ screen (kinase selectivity in THP-1 cell lysates)) EUB0000639a MAP2K3; format: subcellular; conditions: lysate, at 0.2 µM
T2 sequence (whole entry): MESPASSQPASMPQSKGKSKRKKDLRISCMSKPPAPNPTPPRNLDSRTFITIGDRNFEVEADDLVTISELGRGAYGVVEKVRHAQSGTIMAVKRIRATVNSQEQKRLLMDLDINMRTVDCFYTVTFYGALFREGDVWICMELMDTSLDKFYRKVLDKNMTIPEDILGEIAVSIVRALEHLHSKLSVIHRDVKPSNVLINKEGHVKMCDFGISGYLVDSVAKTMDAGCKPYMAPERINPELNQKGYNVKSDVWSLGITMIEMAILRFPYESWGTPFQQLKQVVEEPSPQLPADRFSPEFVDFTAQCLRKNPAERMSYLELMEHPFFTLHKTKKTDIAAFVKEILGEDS

[3] = target: N-lysine methyltransferase SMYD2 (Homo sapiens) (UniProt Q9NRG4); test: Selectivity interaction (Transferase panel (protein, RNA, and DNA methyltransferases. and EP300 (acetyltransferase))) EUB0000270b SMYD2
[4] = target: Rho-associated protein kinase 1 (Homo sapiens) (UniProt Q13464); test: Selectivity interaction (KinomeScan (DiscoverX)) EUB0001049a ROCK1; conditions: at 1 µM
[5] = target: T3, SNF-related serine/threonine-protein kinase (Homo sapiens) (UniProt Q9NRH2); test: Selectivity interaction (KinomeScan (DiscoverX)) EUB0001049a SNRK; conditions: at 1 µM
T3 sequence (whole entry): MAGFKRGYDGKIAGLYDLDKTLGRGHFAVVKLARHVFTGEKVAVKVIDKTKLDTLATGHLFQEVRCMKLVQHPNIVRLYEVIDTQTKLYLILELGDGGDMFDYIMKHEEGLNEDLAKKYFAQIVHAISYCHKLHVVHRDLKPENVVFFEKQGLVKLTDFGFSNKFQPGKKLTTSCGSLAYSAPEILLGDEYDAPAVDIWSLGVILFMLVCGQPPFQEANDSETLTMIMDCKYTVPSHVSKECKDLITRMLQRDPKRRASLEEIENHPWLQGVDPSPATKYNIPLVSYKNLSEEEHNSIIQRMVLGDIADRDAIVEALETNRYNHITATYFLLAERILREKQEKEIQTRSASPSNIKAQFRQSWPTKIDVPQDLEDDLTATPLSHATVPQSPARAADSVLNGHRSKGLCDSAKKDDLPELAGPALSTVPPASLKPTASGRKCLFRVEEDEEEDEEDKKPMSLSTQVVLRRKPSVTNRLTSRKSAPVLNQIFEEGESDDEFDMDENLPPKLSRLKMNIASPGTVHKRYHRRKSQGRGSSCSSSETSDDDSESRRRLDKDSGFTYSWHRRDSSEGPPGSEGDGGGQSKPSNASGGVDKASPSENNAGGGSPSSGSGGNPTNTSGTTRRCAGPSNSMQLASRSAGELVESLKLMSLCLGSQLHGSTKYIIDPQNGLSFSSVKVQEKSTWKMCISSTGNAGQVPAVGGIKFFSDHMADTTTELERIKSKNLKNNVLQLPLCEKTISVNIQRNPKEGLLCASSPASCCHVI

[6] = target: T4, Inhibitor of nuclear factor kappa-B kinase subunit beta (Homo sapiens) (UniProt O14920); test: Selectivity interaction (KinomeScan (DiscoverX)) EUB0000092b IKBKB; conditions: at 10 µM
T4 sequence (whole entry): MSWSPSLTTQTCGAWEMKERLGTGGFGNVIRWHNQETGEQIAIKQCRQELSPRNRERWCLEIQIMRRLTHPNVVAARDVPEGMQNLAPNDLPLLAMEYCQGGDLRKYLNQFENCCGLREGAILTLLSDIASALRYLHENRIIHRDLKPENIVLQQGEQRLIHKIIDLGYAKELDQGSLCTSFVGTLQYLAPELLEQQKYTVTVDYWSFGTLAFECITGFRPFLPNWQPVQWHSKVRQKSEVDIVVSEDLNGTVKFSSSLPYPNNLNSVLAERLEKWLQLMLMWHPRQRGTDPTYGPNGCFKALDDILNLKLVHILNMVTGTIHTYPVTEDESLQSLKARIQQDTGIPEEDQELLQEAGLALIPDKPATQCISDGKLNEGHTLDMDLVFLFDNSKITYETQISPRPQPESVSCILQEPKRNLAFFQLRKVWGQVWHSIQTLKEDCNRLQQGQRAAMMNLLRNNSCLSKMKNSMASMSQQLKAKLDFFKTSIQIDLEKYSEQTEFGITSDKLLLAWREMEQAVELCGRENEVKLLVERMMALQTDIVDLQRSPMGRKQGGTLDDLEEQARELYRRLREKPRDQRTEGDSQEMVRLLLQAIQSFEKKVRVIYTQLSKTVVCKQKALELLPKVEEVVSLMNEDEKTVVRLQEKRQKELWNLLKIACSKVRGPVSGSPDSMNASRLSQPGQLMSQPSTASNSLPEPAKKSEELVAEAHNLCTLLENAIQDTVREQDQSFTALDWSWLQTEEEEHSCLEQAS

Sequence of N-lysine methyltransferase SMYD2 (Homo sapiens) (Q9NRG4 whole entry): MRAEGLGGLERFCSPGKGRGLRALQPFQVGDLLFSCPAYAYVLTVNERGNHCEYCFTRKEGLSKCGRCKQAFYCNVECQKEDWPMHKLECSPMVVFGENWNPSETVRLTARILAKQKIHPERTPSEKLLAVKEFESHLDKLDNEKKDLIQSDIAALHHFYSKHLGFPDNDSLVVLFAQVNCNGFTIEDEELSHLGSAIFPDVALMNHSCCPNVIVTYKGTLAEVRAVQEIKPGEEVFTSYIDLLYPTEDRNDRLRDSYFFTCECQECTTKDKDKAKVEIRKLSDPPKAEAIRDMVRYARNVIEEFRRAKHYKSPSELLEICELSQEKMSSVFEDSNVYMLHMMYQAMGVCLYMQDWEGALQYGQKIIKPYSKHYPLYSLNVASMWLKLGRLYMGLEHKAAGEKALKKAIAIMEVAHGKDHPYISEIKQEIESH
Sequence of Rho-associated protein kinase 1 (Homo sapiens) (Q13464 2-1354 limits assumed): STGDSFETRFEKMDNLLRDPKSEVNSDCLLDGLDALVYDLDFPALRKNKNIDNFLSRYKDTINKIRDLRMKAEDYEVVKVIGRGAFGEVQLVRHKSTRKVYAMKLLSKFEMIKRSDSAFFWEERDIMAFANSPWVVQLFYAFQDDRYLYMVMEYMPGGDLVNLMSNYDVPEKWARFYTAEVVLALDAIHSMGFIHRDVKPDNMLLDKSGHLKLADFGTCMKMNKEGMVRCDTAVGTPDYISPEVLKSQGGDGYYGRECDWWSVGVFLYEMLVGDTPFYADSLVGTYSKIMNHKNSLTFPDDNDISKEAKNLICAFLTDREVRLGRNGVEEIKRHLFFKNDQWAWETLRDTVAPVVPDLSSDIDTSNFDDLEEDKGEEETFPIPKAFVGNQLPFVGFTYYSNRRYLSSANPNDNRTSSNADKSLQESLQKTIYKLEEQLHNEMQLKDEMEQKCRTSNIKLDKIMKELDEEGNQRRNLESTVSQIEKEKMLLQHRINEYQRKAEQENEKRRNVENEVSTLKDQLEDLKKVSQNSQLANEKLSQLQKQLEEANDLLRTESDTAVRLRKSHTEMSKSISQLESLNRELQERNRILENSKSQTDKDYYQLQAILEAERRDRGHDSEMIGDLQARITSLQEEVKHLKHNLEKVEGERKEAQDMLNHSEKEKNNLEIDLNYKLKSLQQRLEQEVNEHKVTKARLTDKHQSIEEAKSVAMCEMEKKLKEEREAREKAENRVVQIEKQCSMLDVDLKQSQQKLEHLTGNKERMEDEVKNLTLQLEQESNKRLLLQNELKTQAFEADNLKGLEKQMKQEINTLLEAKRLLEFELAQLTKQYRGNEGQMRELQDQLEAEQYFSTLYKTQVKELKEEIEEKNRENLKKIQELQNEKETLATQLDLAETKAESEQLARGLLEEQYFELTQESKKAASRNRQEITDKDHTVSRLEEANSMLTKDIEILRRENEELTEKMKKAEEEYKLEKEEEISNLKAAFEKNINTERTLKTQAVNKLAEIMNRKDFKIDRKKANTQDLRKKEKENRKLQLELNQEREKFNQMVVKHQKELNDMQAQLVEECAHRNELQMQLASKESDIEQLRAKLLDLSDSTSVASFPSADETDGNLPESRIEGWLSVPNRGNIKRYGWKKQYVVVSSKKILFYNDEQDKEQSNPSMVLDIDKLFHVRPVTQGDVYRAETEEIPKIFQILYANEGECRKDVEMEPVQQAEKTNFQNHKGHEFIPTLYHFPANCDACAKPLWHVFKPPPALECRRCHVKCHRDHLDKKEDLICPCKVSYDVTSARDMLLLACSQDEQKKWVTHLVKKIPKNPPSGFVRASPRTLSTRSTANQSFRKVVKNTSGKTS

Compound: C=CC(=O)Nc1cc(-n2c(=O)ccc3cnc4ccc(-c5ccc(NS(C)(=O)=O)cc5)cc4c32)ccc1C
- % of control ([1]; at 1 µM): 100%
- % of control ([1]; at 10 µM): 100%

- % of inhibition [2]: -70.7%
Compound: CC[C@@H]1[C@H](F)C(=O)N[C@@H]1COc1nccc2cc(C(N)=O)c(OC)cc12 [ZIMLOVISERTIB]

- % activity ([3]; at 1 µM): > 90%
- % activity ([3]; at 10 µM): > 80%
Compound: Cc1cc(CN)cc(C)c1-c1ncn(C)c1-c1cncn1C

Compound: COc1cc(Nc2nc(C)cc(-c3cnn4nc(OC)ccc34)n2)cc(C(F)(F)F)c1
- % of control [4]: 99%
- % of control [5]: 100%

Compound: CCC(=O)N1CCN(c2ccc(-n3c(=O)ccc4cnc5ccc(-c6cnc7ccccc7c6)cc5c43)cc2C(F)(F)F)CC1
- % of control [6]: 61%
